Blank lines part the entries; values can stand above or below the compound they belong to. Activity calls are given as the source filed them. The calls are words filed in the database; no cut-off is given here.
Assays:
J774 [1] = assay: Inhibition of RGGT-mediated Rap1A prenylation in mouse J774 cells after 24 hrs by Western blot analysis; type: cell-based
J774 [2] = assay: Inhibition of RGGT-mediated Rab11 prenylation in mouse J774 cells after 24 hrs by Western blot analysis; type: cell-based
[3] = target: Protein farnesyltransferase/geranylgeranyltransferase type-1 subunit alpha (Homo sapiens) (UniProt P49354); assay: Inhibition of GGTase1 assessed as incorporation of [3H]GGPP into His-tagged canine rab1a at 1 mM after 30 mins
[4] = target: T1, Geranylgeranyl pyrophosphate synthase (Homo sapiens) (UniProt O95749); assay: Inhibition of GGPPS at 1mM after 10 mins using [14C]IPP as substrate by liquid scintillation counting
T1 sequence (whole entry): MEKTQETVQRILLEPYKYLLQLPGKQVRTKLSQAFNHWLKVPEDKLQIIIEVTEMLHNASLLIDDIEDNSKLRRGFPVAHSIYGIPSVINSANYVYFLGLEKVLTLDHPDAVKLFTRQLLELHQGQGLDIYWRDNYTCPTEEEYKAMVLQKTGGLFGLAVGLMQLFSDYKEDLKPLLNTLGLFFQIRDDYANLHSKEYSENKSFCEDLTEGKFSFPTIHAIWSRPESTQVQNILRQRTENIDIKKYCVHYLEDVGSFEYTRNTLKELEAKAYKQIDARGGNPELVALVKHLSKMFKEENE

[5] = target: T2, Geranylgeranyl transferase type-2 subunit alpha (Homo sapiens) (UniProt Q92696); assay: Inhibition of rabbit osteoclast rab11 prenylation after 24 hrs by Western blot analysis; settings: Oryctolagus cuniculus; target entry is the homologue from another species
T2 sequence (whole entry): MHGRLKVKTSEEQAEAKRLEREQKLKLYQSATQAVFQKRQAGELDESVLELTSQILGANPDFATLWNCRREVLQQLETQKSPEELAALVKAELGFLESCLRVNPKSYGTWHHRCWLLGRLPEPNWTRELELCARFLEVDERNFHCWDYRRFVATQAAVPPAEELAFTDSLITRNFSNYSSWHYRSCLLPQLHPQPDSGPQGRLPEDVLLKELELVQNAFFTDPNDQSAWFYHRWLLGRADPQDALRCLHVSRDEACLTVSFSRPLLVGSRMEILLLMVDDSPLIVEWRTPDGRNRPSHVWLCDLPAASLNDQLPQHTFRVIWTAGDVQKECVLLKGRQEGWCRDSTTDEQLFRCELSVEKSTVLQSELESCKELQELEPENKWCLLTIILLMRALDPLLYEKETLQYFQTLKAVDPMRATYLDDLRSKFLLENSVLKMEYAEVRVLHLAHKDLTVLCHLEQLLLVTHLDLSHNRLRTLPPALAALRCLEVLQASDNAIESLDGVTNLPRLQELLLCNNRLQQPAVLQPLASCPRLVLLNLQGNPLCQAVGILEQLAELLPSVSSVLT

[6] = target: T3, Farnesyl pyrophosphate synthase (Homo sapiens) (UniProt P14324); assay: Inhibition of human FPPS at 10 uM after 10 mins using [14C]IPP as substrate
T3 sequence (whole entry): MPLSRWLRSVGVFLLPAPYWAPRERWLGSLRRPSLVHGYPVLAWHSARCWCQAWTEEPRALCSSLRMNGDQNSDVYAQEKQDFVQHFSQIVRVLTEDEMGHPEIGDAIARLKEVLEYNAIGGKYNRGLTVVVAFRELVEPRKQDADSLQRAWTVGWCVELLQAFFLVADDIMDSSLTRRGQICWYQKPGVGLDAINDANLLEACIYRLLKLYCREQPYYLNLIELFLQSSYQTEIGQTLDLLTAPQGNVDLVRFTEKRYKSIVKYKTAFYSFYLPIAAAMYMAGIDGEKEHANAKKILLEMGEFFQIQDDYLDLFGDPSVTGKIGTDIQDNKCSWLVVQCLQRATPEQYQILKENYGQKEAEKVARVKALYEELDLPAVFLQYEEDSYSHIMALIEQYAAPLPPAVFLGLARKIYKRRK

[7] = Inhibition of recombinant RGGT assessed as incorporation of [3H]GGPP into His-tagged canine rab1a after 30 mins
[8] = Inhibition of GGTase1 assessed as incorporation of [3H]GGPP into His-tagged canine rab1a after 30 mins
[9] = Inhibition of recombinant RGGT by uncompetitive inhibition based Lineweaver-Burke plot using Rab1a as substrate
[10] = Inhibition of recombinant RGGT assessed as incorporation of [3H]GGPP into His-tagged canine rab1a after 20 mins
J774 [11] = assay: Cytotoxicity against mouse J774 cells assessed as cell viability after 48 hrs by alamar blue assay; type: functional, cell-based
[12] = target: T4, Farnesyl pyrophosphate synthase (Homo sapiens, UniProt P14324); assay: Inhibition of human FPPS after 10 mins using [14C]IPP as substrate by liquid scintillation counting
T4 sequence (P14324 whole entry): T3 sequence (whole entry)

Rattus norvegicus = species: Rattus norvegicus; assay: Antiresorptive activity in Schenk growing rat model assessed as inhibition of bone resorption; type: functional
Osteoclast = assay: Antiresorptive activity in rabbit osteoclasts assessed as number of actin rings after 48 hrs using TRITC-phelloidin stain relative to control; type: functional, cell-based; settings: Oryctolagus cuniculus

IC50 [7]: 1.1 µM | IC50 [8]: > 800 µM | Ki [9]: 0.211 µM | IC50 [10]: 1.3 µM
Structure (SMILES): O=C(O)C(O)(Cc1cnc2ccccn12)P(=O)(O)O (single isomer, unassigned; (+)) [(2-HYDROXY-3-IMIDAZO[1,2-A]PYRIDIN-3-YL-2-PHOSPHONOPROPIONIC ACID (ENANTIONMERS)]
IC50 (J774 [11]; j774): 31 µM

IC50 [7]: 39 µM
Structure (SMILES): O=C(O)C(O)(Cc1cccnc1)P(=O)(O)O (single isomer, unassigned; enantiomer 1) [listing 1 of 2 here]

Activity [3]: inactive | Activity [4]: inactive
Structure (SMILES): O=C(O)C(O)(Cc1cnc2ccccn12)P(=O)(O)O (single isomer, unassigned; (+))
LED (J774 [1]): 100 µM | LED (J774 [2]): 3 µM

IC50 [7]: 150 µM
Structure (SMILES): O=C(O)C(O)(Cc1cccnc1)P(=O)(O)O (single isomer, unassigned; enantiomer 2) [listing 1 of 2 here]

IC50 [7]: > 1000 µM
Structure (SMILES): O=P(O)(O)C(O)(Cc1cnc2ccccn12)P(=O)(O)O [MINODRONIC ACID]
LED (J774 [1]): 3 µM | LED (J774 [2]): 3 µM | IC50 (J774 [11]; Mus musculus, J774, 48 h): 3 µM

IC50 [12]: > 1000 µM | IC50 [7]: 51.7 µM | IC50 [8]: > 2000 µM | Ki [9]: 33.6 µM | IC50 [10]: 32 µM | IC50 (Osteoclast): 970 µM
Structure (SMILES): O=C(O)C(O)(Cc1cccnc1)P(=O)(O)O (racemic) [listing 2 of 2 here]
LED (Rattus norvegicus): 12 mg/kg | IC50 (J774 [11]; Mus musculus, J774, 48 h): 2800 µM

Continued, compound first:

Structure (SMILES): O=C(O)C(O)(Cc1cnc2ccccn12)P(=O)(O)O (single isomer, unassigned; enantiomer 2)
LED (J774 [1]): 4000 µM | LED (J774 [2]): 50 µM | Activity [3]: inactive | Activity [4]: inactive

Structure (SMILES): O=C(O)C(O)(Cc1cnc2ccccn12)P(=O)(O)O (racemic)
LED (J774 [1]): > 100 µM | LED (J774 [2]): 3 µM | Activity [5]: 12.5 µM | Activity [6]: inactive

Structure (SMILES): O=C(O)C(O)(Cc1cccnc1)P(=O)(O)O (single isomer, unassigned; enantiomer 1) [listing 2 of 2 here]
LED (J774 [2]): 63 µM

Structure (SMILES): O=P(O)(O)C(O)(Cc1cccnc1)P(=O)(O)O
LED (J774 [1]): 12 µM | LED (J774 [2]): 12 µM

Structure (SMILES): O=C(O)C(O)(Cc1cnc2ccccn12)P(=O)(O)O (single isomer, unassigned; enantiomer 2) [(2-HYDROXY-3-IMIDAZO[1,2-A]PYRIDIN-3-YL-2-PHOSPHONOPROPIONIC ACID (ENANTIONMERS)]
IC50 [7]: 67.7 µM | IC50 (J774 [11]; j774): > 800 µM

Structure (SMILES): O=C(O)C(O)(Cc1cccnc1)P(=O)(O)O (racemic) [listing 1 of 2 here]
LED (J774 [2]): 100 µM | Activity [5]: 200 µM | Activity [6]: inactive

Structure (SMILES): O=C(O)C(O)(Cc1cccnc1)P(=O)(O)O (single isomer, unassigned; enantiomer 2) [listing 2 of 2 here]
LED (J774 [2]): 250 µM

Structure (SMILES): O=C(O)C(O)(Cc1cnc2ccccn12)P(=O)(O)O (racemic) [(2-HYDROXY-3-IMIDAZO[1,2-A]PYRIDIN-3-YL-2-PHOSPHONOPROPIONIC ACID (ENANTIONMERS)]
IC50 [12]: > 10 µM | IC50 [7]: 12.5 µM | LED (Rattus norvegicus): 2.8 mg/kg | IC50 (J774 [11]; j774): 47 µM | IC50 (Osteoclast): 330 µM

— ChEMBL document CHEMBL1157780, “Synthesis, chiral high performance liquid chromatographic resolution and enantiospecific activity of a potent new geranylgeranyl transferase inhibitor, 2-hydroxy-3-imidazo[1,2-a]pyridin-3-yl-2-phosphonopropionic acid” (J Med Chem, 2010)
